Source: patent EP4371976B1, “IONIZABLE LIPIDS AND LIPID NANOPARTICLES CONTAINING THEREOF” (Certest Biotec, S.L., priority 2022, dated 2024)

Tests used:
[1] = RNA encapsulation efficiency of LNPs by Quant-IT Ribogreen; type: physicochemical; conditions: LNPs with luciferase mRNA; ionizable lipid:non-cationic lipid:sterol:PEG-modified lipid 50:10:38.5:1.5; percentage of RNA entrapped in the LNP
Procedure: The mRNA aqueous solution was then carefully added to the ethanol solution, and the resulted solution was homogenized by pipetting up and down for 4-5 times. The resulting LNPs were immediately diluted 1:1 with Tris buffer and dialyzed overnight against Tris buffer containing 15% sucrose. The resulting LNP solution was then collected, and the encapsulated mRNA was assessed by Quant-IT® Ribogreen (Invitrogen R11490) following the manufacturer's instructions.
(§1) The LNP solution was then adjusted to a final concentration of mRNA of 100 µg/ml. Size distribution, polydispersity and Z-potential were measured by dynamic light scattering (DLS) using Malvern Zetasizer Advance Lab Blue Label. RNA encapsulation was assessed by Quant-IT® Ribogreen following the manufacturer's instructions.

[2] = Apparent pKa of LNPs comprising the ionizable lipid (Table 6); conditions: standard formulation 50:10:38.5:1.5
[3] = Size distribution, polydispersity and Z-potential of LNPs by dynamic light scattering (Malvern Zetasizer); type: physicochemical; conditions: LNPs, standard formulation 50:10:38.5:1.5; DLS
Procedure: as §1

SMILES | Encaps. efficiency (%) [1] | Apparent pKa [2] | P.D.I. [3] | Particle size/ Ø (nm) [3] | Z Potential (± D.E.) [mV] [3]
CCCCCCCCCCCCC(CCCCCCCCCC)COC(=O)CCSCC(CC(=O)NC1CCN(C)CC1)C(=O)OCC(CCCCCC)CCCCCCCC (centres unmarked) [VC-LC-0537] | 69.42% | 5.23 | 0.14 | 165.1 nm | -8.81 mV
CCCCCCCCC(CCCCCCCC)OC(=O)C(CCSCCC(=O)OCCCCCCCC(C)C)C(=O)NCCCn1ccnc1 (centres unmarked) [VC-LC-0364] | 78.29% | 6.38 | 0.13 | 116.8 nm | -14.33 mV
CCCCCCCCCCCCCCOC(=O)CCSCCC(C(=O)NC1CCN(C)CC1)C(=O)OC(CCCCCCCC)CCCCCCCC (centres unmarked) [VC-LC-0444] | 85.85% | 6.28 | 0.07 | 185.7 nm | -3.35 mV
CCCCCCCCCCCCCOC(=O)CCSCCC(C(=O)NCCCN1CCOCC1)C(=O)OCC(CCCCCC)CCCCCCCC (centres unmarked) [VC-LC-0605] | 52.30% | 5.68 | 0.24 | 136.3 nm | -11.79 mV
CCCCCCCCCCCCCCCCOC(=O)CCSCCC(C(=O)NCCCn1ccnc1)C(=O)OC(CCCCCCCC)CCCCCCCC (centres unmarked) [VC-LC-0369] | 92.05% | 6.02 | 0.15 | 137.6 nm | -10.72 mV
CCCCCCCCCCCCCCCCCC(=O)NC(CCSCCC(=O)OCCCCCCCCCCCC)C(=O)NC1CCN(C)CC1 (centres unmarked) [VC-LC-0434] | 99.09% | 5.72 | 0.2483 | 214.6 nm | 1.34 mV
CCCCCCCCC(CCCCCC)COC(=O)C(CSCCC(=O)OCCCCCC(C)C)CC(=O)NC1CCN(C)CC1 (centres unmarked) [VC-LC-0532] | 99.89% | 8.11 | 0.15 | 137.8 nm | 8.05 mV
CCCCCCCCCCCCCCOC(=O)CCSCCC(C(=O)NCCCN1CCOCC1)C(=O)OCC(CCCCCC)CCCCCCCC (centres unmarked) [VC-LC-0610] | 55.68% | 5.93 | 0.13 | 168.1 nm | -21.04 mV
CCCCCCCCOC(=O)CCSCC(CC(=O)NC1CCN(C)CC1)C(=O)OCC(CCCCCC)CCCCCCCC (centres unmarked) [VC-LC-0535] | 96.61% | 7.87 | 0.11 | 144.7 nm | 4.45 mV
CCCCCCCCCCCCCCCCOC(=O)CCSCCC(NC(=O)C(CCCCCC)CCCCCCCC)C(=O)NCCCN(CCO)CCO (centres unmarked) [VC-LC-0201] | 86.70% | – | – | 259.7 nm | 2.80 mV
CCCCCCCC#CCOC(=O)CCSCCC(NC(=O)CCCCCCCCCCCCCCCCC)C(=O)NC1CCN(C)CC1 (centres unmarked) [VC-LC-0437] | 99.92% | – | 0.23 | 152 nm | 7.76 mV
CCCCCCCCCCCCOC(=O)CCSCC(CC(=O)NC1CCN(C)CC1)C(=O)OCC(CCCCCC)CCCCCCCC (centres unmarked) [VC-LC-0528] | 98.83% | – | 0.2 | 137.4 nm | 4.55 mV
CCCCCCCCCCCCCCCCCCCCCCOC(=O)CCSCCC(C(=O)NCCCn1ccnc1)C(=O)OC(CCCCCCCC)CCCCCCCC (centres unmarked) [VC-LC-0363] | 63.87% | – | 0.18 | 143.9 nm | -17.92 mV
CCCCCCCCCCCCCOC(=O)CCSCC(CC(=O)NCCCn1ccnc1)C(=O)OC(CCCCCCCC)CCCCCCCC (centres unmarked) [VC-LC-0294] | 65.74% | – | 0.09 | 160.7 nm | -10.37 mV
CCCCCCCCCCCCCCCCCC(=O)NC(CCSCCC(=O)OCCCCCCCCCCCCC)C(=O)NC1CCN(C)CC1 (centres unmarked) [VC-LC-0435] | 99.22% | – | 0.2 | 182.6 nm | 8.58 mV

Further lines, results first:

Encaps. efficiency (%) [1] | Apparent pKa [2] | P.D.I. [3] | Particle size/ Ø (nm) [3] | Z Potential (± D.E.) [mV] [3] | SMILES
98.99% | 6.86 | 0.22 | 169.8 nm | 5.52 mV | CCCCCCCCCCCCOC(=O)CCSCCC(NC(=O)C(CCCCCC)CCCCCCCC)C(=O)NCC1CCN(C)CC1 (centres unmarked) [VC-LC-0494]
60.57% | 6.03 | 0.13 | 143.8 nm | -5.88 mV | CCCCCCCC/C=C\CCCCCCCCOC(=O)CCSCCC(NC(=O)C(CCCCCC)CCCCCCCC)C(=O)NCCN(CC)CC (centres unmarked) [VC-LC-0489]
97.15% | 6.69 | 0.16 | 137.9 nm | -1.93 mV | CCCCCCCCCCC(CCCCCCCC)C(=O)NC(CCSCCC(=O)OCCCCCCCC)C(=O)NCC1CCN(C)CC1 (centres unmarked) [VC-LC-0519]
43.07% | 6.73 | 0.085 | 134.0 nm | -7.78 mV | CCCCCCCCCCCCCOC(=O)CCSCCC(NC(=O)C(CCCCCC)CCCCCCCC)C(=O)NCCN(CC)CC (centres unmarked) [VC-LC-0473]
50.40% | 5.88 | 0.20 | 179.2 nm | -11.14 mV | CCCCCCCCC(CCCCCC)COC(=O)C(CCSCCC(=O)OCC(CC)CCCC)C(=O)NCCCN1CCOCC1 (centres unmarked) [VC-LC-0608]
98.56% | 6.46 | 0.12 | 128.8 nm | -0.57 mV | CCCCCCCCC(CCCCCC)C(=O)NC(CCSCCC(=O)OCC(CC)CCCC)C(=O)NCC1CCN(C)CC1 (centres unmarked) [VC-LC-0493]
65.16% | 6.82 | 0.17 | 156.2 nm | -7.01 mV | CCCCCCCCCCCCCCOC(=O)CCSCCC(NC(=O)C(CCCCCC)CCCCCCCC)C(=O)NCCN(CC)CC (centres unmarked) [VC-LC-0478]
96.77% | 7.75 | 0.13 | 180.8 nm | 4.87 mV | CCCCCCCCCCCCCCCCCC(=O)NC(CCSCCC(=O)OCC(CCCCCC)CCCCCCCC)C(=O)NC1CCN(C)CC1 (centres unmarked) [VC-LC-0433]
99.88% | 6.74 | – | 168.6 nm | -2.94 mV | CCCCCCCC#CCOC(=O)CCSCCC(NC(=O)C(CCCCCC)CCCCCCCC)C(=O)NCC1CCN(C)CC1 (centres unmarked) [VC-LC-0505]
84.48% | 7.00 | 0.23 | 216.2 nm | 1.65 mV | CCCCCCCC/C=C\CCCCCCCCOC(=O)CCSCCC(NC(=O)C(CCCCCC)CCCCCCCC)C(=O)NC1CCN(C)CC1 (centres unmarked) [VC-LC-0430]
41.89% | 6.21 | 0.14 | 138.8 nm | -8.47 mV | CCCCCCCCC(CCCCCC)C(=O)NC(CCSCCC(=O)OCC(CC)CCCC)C(=O)NCCCn1ccnc1 (centres unmarked) [VC-LC-0259]
66.86% | 6.33 | 0.24 | 124.1 nm | -17.43 mV | CCCCCCCCC(CCCCCCCC)OC(=O)C(CCSCCC(=O)OCC(CC)CCCC)C(=O)NCCCn1ccnc1 (centres unmarked) [VC-LC-0365]
83.35% | – | 0.26 | 179 nm | -20.85 mV | CCCCCCCCC(CCCCCC)C(=O)NC(CCSCCC(=O)OCC(CC)CCCC)C(=O)NC1CCN(C)CC1 (centres unmarked) [VC-LC-0212]
90.54% | – | 0.22 | 262.2 nm | 1.39 mV | CCCCCCCCC(CCCCCC)C(=O)NC(CCSCCC(=O)OCC(CC)CCCC)C(=O)NCCCN(CCO)CCO (centres unmarked) [VC-LC-0197]
100.00% | – | – | – | 0.00 mV | CCCCCCCCCCCCCCOC(=O)CCSCCC(NC(=O)C(CCCCCC)CCCCCCCC)C(=O)NCCCN(C)C (centres unmarked) [VC-LC-0104]
91.18% | – | 0.22 | 217.1 nm | -2.72 mV | CCCCCCCCCCCCOC(=O)CCSCCC(NC(=O)C(CCCCCC)CCCCCCCC)C(=O)NCCN1CCN(C)CC1 (centres unmarked) [VC-LC-0182]
100.00% | – | – | – | 0.00 mV | CCCCCCCCC(CCCCCC)C(=O)NC(CCSCCC(=O)OCCCCCC(C)C)C(=O)NCCCN(C)C (centres unmarked) [VC-LC-0107]
44.25% | – | 0.18 | 161.7 nm | -17.24 mV | CCCCCCCCCCCCOC(=O)CCSCCC(NC(=O)C(CCCCCC)CCCCCCCC)C(=O)NCCCn1ccnc1 (centres unmarked) [VC-LC-0260]
98.70% | – | – | – | 0.00 mV | CCCCCCCCCCCCCCCCOC(=O)CCSCCC(NC(=O)C(CCCCCC)CCCCCCCC)C(=O)NCCCN(C)C (centres unmarked) [VC-LC-0106]
